Source: patent publication US4847268A, “8-phenylthio-tetrahydroquinolines and anti-allergic use thereof” (Roussel Uclaf, priority 1986, dated 1989)
Structures can show the parent of a compound that is named as a salt.

What was measured:
[1] = target: T1, 5-lipoxygenase (Rattus norvegicus, UniProt P12527); test: 5-LIPOX: inhibition of Ca++ ionophore (A23187)-induced release of 5-lipoxygenase products from [14C]-arachidonic acid pre-labelled rat peritoneal neutrophils; type: cell-based; conditions: A23187-induced release of leukotriene D4 and 5-HETE, determined graphically from dose-response curves, read-out: 5-LIPOX: concentration of test compound causing 50% inhibition of control response
T1 construct: pre-labelled rat peritoneal neutrophils; endogenous in cells; host or cells: rat peritoneal neutrophils
T1 sequence (P12527 1-673): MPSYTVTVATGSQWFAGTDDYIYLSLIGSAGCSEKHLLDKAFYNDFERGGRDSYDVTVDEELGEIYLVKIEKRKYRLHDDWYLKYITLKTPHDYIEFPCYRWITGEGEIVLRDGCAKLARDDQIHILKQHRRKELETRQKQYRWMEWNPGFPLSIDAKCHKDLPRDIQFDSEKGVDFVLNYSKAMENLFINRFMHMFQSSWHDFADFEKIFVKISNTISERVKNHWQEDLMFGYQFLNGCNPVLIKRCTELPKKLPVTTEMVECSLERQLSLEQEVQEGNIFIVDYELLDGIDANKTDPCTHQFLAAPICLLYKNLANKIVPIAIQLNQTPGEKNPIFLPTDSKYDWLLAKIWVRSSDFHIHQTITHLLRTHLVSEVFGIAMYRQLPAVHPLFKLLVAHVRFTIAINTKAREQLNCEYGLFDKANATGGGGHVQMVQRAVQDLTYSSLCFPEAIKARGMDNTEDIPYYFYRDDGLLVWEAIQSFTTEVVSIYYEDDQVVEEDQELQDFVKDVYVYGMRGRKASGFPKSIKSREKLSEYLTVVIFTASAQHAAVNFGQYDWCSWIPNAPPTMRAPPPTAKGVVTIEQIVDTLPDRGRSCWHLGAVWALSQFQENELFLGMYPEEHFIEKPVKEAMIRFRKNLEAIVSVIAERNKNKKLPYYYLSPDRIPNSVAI
Source text: A. 5-LIPOX Inhibition of the Ca^++ ionophore (A23187)-induced release of 5-lipoxygenase products ([…] and 5-HETE) from [^14 C]-arachidonic acid pre-labelled rat peritoneal neutrophils. Assayed by a modification of the method reported by Ahnfelt-Ronne et al [Biochemical Pharmacology, Vol. 31, No. 16, pp. 2619-2624 (1982)]. The data presented are micromolar concentrations of test compound causing 50% inhibition of control response determined graphically from dose-response curves.

[2] = target: T2, LTD4 receptor (Cavia porcellus, UniProt Q2NNR5); test: LTD4 RECEPTOR: inhibition of specific binding of [3H]-LTD4 to a membrane preparation of guinea-pig lung tissue; conditions: [3H]-LTD4, guinea-pig lung membrane preparation; determined graphically from dose-response curves; read-out: LTD4 receptor: concentration of test compound causing 50% inhibition of specific binding
T2 construct: a membrane preparation of guinea-pig lung tissue; from tissue; host or cells: guinea-pig lung membranes
T2 sequence (Q2NNR5 1-340): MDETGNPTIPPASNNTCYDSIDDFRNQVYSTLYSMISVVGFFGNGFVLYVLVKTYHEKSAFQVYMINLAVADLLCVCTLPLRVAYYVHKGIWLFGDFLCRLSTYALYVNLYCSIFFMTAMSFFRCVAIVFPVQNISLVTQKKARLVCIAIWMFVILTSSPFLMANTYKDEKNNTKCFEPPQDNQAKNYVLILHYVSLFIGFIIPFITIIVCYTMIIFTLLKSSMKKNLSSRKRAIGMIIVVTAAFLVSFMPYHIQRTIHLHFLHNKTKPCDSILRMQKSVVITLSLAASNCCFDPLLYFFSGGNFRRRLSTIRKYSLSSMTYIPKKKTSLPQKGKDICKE
Source text: B. LTD4 RECEPTOR Inhibition of the specific binding of [^3 H]-LTD4 to a membrane preparation of guinea-pig lung tissue assayed by a modification of a method reported by Bruns et al [Life Sciences, Vol. 33, pp. 645-653 (1983)]. The data presented are micromolar concentrations of test compound causing 50% inhibition of specific binding determined graphically from dose-response curves.

| SMILES | IC50 [1] [µM] | IC50 [2] [µM] |
| --- | --- | --- |
| Clc1ccc(SC2CCCc3cccnc32)cc1 (stereo not shown) [Example 1, 8-(4-chlorophenylthio)-5,6,7,8-tetrahydroquinoline hydrochloride] | 4.2 | 22.4 |
| COc1ccc(SC2CCCc3cccnc32)cc1 (stereo not shown) [Example 14, 8-(4-methoxyphenylthio)-5,6,7,8-tetrahydroquinoline hydrochloride] | 13.2 | 16.6 |
| N#Cc1ccc(SC2CCCc3cccnc32)cc1 (stereo not shown) [Example 2, 4-(5,6,7,8-tetrahydroquinoline-8-ylthio)-benzonitrile] | 31 | – |
| Cc1ccc(SC2CCCc3cccnc32)cc1 (stereo not shown) [Example 5, 8-(4-methylphenylthio)-5,6,7,8-tetrahydroquinoline hydrochloride] | 3 | 23.4 |
| O=C(O)c1ccc(SC2CCCc3cccnc32)cc1 (stereo not shown) [Example 16, 4-(5,6,7,8-tetrahydroquinoline-8-ylthio)-benzoic acid] | > 100 | – |
| CCCCCC(O)c1cccc(SC2CCCc3cccnc32)c1 (stereo not shown) [Example 11, 8[3-(1-hydroxyhexyl)-phenylthio]-5,6,7,8-tetrahydroquinoline] | 5.6 | – |
| CCc1ccc(SC2CCCc3cccnc32)cc1 (stereo not shown) [Example 15, 8-(4-ethylphenylthio)-5,6,7,8-tetrahydroquinoline hydrochloride] | 4 | – |
| COC(=O)c1ccc(SC2CCCc3cccnc32)cc1 (stereo not shown) [Example 20, Methyl 4-(5,6,7,8-tetrahydroquinoline-8-ylthio)-benzoate hydrochloride] | 18.6 | – |
| c1cnc2c(c1)CCCC2Sc1cccc2ccccc12 (stereo not shown) [Example 6, 8-(1-naphthylthio)-5,6,7,8-tetrahydroquinoline] | 1.7 | 52.5 |
| CCCCOc1ccc(SC2CCCc3cccnc32)cc1 (stereo not shown) [Example 17, 8-(4-n-Butoxyphenylthio)-5,6,7,8-tetrahydroquinoline hydrochloride] | 3.7 | – |
| CCOc1ccc(SC2CCCc3cccnc32)cc1 (stereo not shown) [Example 18, 8-(4-ethoxyphenylthio)-5,6,7,8-tetrahydroquinoline hydrochloride] | 11.2 | – |
| c1cnc2c(c1)CCCC2Sc1ccc2ccccc2c1 (stereo not shown) [Example 9, 8-(2-naphthylthio)-5,6,7,8-tetrahydroquinoline hydrochloride] | 2.3 | – |
| Nc1ccc(SC2CCCc3cccnc32)cc1 (stereo not shown) [Example 7, 8-(4-aminophenylthio)-5,6,7,8-tetrahydroquinoline] | 25 | > 100 |
| O=[N+]([O-])c1cc(SC2CCCc3cccnc32)ccc1O (stereo not shown) [Example 21, 8-(4-hydroxy-3-nitrophenylthio)-5,6,7,8-tetrahydroquinoline] | 33 | – |
| O=[N+]([O-])c1ccc(SC2CCCc3cccnc32)cc1 (stereo not shown) [Example 4, 8-(4-nitrophenylthio)-5,6,7,8-tetrahydroquinoline hydrochloride] | 12.6 | 26.3 |
| NS(=O)(=O)c1ccc(SC2CCCc3cccnc32)cc1 (stereo not shown) [Example 12, 4-(5,6,7,8-tetrahydroquinoline-8-ylthio)-benzenesulfonamide] | 26 | – |
| CC(=O)Oc1ccc(SC2CCCc3cccnc32)cc1 (stereo not shown) [Example 19, 8-(4-acetoxyphenylthio)-5,6,7,8-tetrahydroquinoline hydrochloride] | 45 | – |
| Oc1ccc(SC2CCCc3cccnc32)cc1 (stereo not shown) [Example 8, 8-(4-hydroxyphenylthio)-5,6,7,8-tetrahydroquinoline] | 14.1 | – |
| CCCCc1ccc(SC2CCCc3cccnc32)cc1 (stereo not shown) [Example 10, 8-(4-n-butylphenylthio)-5,6,7,8-tetrahydroquinoline hydrochloride] | 1.9 | – |
